Measured values: patent US7928128B2, “Use of(R)-(−) -2-[5-(4-fluorophenyl)-3-pyridylmethylaminomethyl]-chromane and its physiologically acceptable salts” (Merck Patent Gesellschaft mit beschrankter Haftung, priority 2000, dated 2011)

Legend:
rats = test: Catalepsy induction in rats (extrapyramidal motor side effects); format: in vivo, rat; conditions: doses up to 500 fold higher compared to the doses effective in the animal models
Protocol: (§1) Extrapyramidal motor side effects in e.g. rodents are measured by the ability of a drug to induce catalepsy. Catalepsy is defined as a state where an animal continues to remain in an unnormal (nonphysiological 'uncomfortable') posture for a long time ([…] and S. D. Glick, Neuropharmacology, 1996; 15: 393-394; […] P. Janssen, Life Sci., 1979, […]). For example, if a hindpaw of a rat is placed on an elevated level, e.g. a platform elevated 3 cm above ground level, a normal rat immediately withdraws the hindpaw from the platform to the ground level. A cataleptic rat remains in this unnatural posture even for minutes.

[1] = test system: catalepsy induced by conventional antidopaminergic drugs such as haloperidol; test: Catalepsy induced by conventional antidopaminergic drugs such as haloperidol; format: in vivo; conditions: same dose-range as effective in the animal models
Protocol: as §1

D2 = D2 (Homo sapiens, UniProt P14416); test: D2 antagonism; conditions: under increased doses
[2] = test system: Parkinsonian cynomolgus monkey; test: MPTP Parkinsonian cynomolgus monkey chronically treated with I-dopa (adverse effects of anti-Parkinsonian drugs); format: in vivo; conditions: MPTP monkeys, long-term I-dopa
Protocol: Treatment of adverse effects of conventional anti-Parkinsonian drugs as defined above are determined in a modification of the animal model of the Parkinsonian cynomolgus monkey according to P. J. Blanchet et al., Exp. Neurology 1998; 153: 214-222. Monkeys render parkinsonian by repeated injections of 1-methyl-4-phenyl-1,2,3,6-tetrahydropyridine (MPTP). The Parkinsonian monkeys are chronically treated with the standard I-dopa therapy according to P. J. Blanchet et al., Mov. Disord., 1998; 13: 798-802. Longterm treatment with I-dopa induces extrapyramidal motor side effects and psychotic states which are both qualitatively and quantitatively, assessed by the Abnormal Involuntary Movement Scale (P. J. Blanchet et al., Mov. Disord. 1998; 13: 798-802) for different body parts (face, neck, trunk, each limb) and by rating for psychotic states by observing the monkey's attention, reactivity and mobility.

[3] = test system: Parkinsonian cynomolgus monkey; test: MPTP Parkinsonian cynomolgus monkey, Laval University Disability Scale; format: in vivo; conditions: MPTP monkeys
Excerpt: A typical animal model for idiopathic Parkinson's disease is the Parkinsonian cynomolgus monkey according to P. J. Blanchet et al., Exp. Neurology 1998; 153: 214-222. Monkeys render parkinsonian by repeated injections of 1-methyl-4-phenyl-1,2,3,6-tetrahydropyridine (MPTP). Parkinsonian symptoms are qualitatively assessed by the use of the Laval University Disability Scale (B. Gomez-Mancilla et al., 1993; Mov. Disord. 8: 144-150) measuring the following symptoms: posture, mobility, climbing, gait, holding food, vocalizing, grooming, social interaction.

[4] = test system: reserpinized rat or mouse; test: Reserpinized rat or mouse (akinesia); format: in vivo; conditions: 24 h after reserpine
Protocol: A typical animal model is the reserpinized rat or mouse (e.g. […]. Neural Transm.-Park. Dis. Dement. Sect., 1994; 7: 133-142; M. Gossel et al., J. Neural Transm.-Park. Dis. Dement. Sect., 1995; 10: 27-39; N. R. Hughes et al., Mov. Disord., 1998; 13: 228-233). Reserpine is a potent depleter of monoamines and produces nearly complete akinesia in both species. Prominent 24 h after application, the distance traveled and the time active is nearly zero as measured in conventional activity meters.

[5] = test system: striatonigral degeneration approach in the rat; test: Striatonigral degeneration in the rat (6-hydroxydopamine plus quinolinic acid), turning behavior; format: in vivo; conditions: automated recorder
Excerpt: Another more recent animal model is the striatonigral degeneration approach in the rat according to […] et al., J. Neural Transm. Suppl., 1999; 55: 103-113. Rats receive an unilateral injection of 6-hydroxydopamine into the left medial forebrain bundle followed by an injection of quinolinic acid into the ipsilateral striatum inducing nigrostriatal degeneration. The degeneration results in turning behavior to a challenge with dopaminomimetics such as apomorphine or amphetamine. Turning behavior is measured by an automated recorder.

[6] = test system: systemic 3-nitropropionic acid (3-NP) model in rats; test: Systemic 3-nitropropionic acid (3-NP) model in rats, nocturnal activity; format: in vivo, rat
Excerpt: A typical animal model is the systemic 3-nitropropionic acid (3-NP) model in rats according to C.
After two injections of 3-NP, rats display nocturnal hyperactivity reflecting symptoms of early Huntington's disease, whereas rats treated with four injections of 3-NP display nocturnal akinesia (hypoactivity) reflecting symptoms of late Huntington's disease. Nocturnal activity is automatically measured in conventional activity cages by infrared beams.

mutant dystonic hamster = test: Mutant dystonic hamster; format: in vivo; conditions: scoring system
Excerpt: A typical animal model is the mutant dystonic hamster according to A. Richter and W. Löscher, Prog. Neurobiol. 1998; 54: 633-677. In this genetically dystonic hamsters, dystonic attacks are provoked by taking the animal from the home cage and placing it on a balance. The dystonic syndrome consists of a sequence of abnormal movements, and the severity of the single symptoms is rated by a scoring system.

[7] = test system: neuroleptics-induced muscle rigidity in rats; test: Neuroleptics-induced muscle rigidity in rats; format: in vivo, rat; conditions: resistance to passive flexion and extension of the hind limb
Excerpt: A typical animal model is neuroleptics-induced muscle rigidity in rats according to S. Wolfarth et al., Arch. Pharmacol. 1992; 345: 209-212. Rats are challenged with the conventional neuroleptic drug haloperidol which enhances muscle tone. Muscle tone is electromechanically measured as the resistance to passive flexion and extension of the hind limb.

[8] = test system: neuroleptics sensitized monkey; test: Neuroleptics sensitized monkey, haloperidol challenge; format: in vivo; conditions: given after haloperidol challenge; scoring system
Excerpt: Another typical animal model is the neuroleptics sensitized monkey according to D. E. Casey, Psychopharmacology, 1996; 124: 134-140. Monkeys treated repeatedly with conventional neuroleptics are highly sensitive to a subsequent challenge dose of neuroleptic drugs. When challenged, the monkeys immediately show extrapyramidal motor side effects such as dystonia, dyskinesias, akathisia, and bradykinesia which are rated by a scoring system. The conventional neuroleptic drug haloperidol is given as a challenge.

[9] = test system: Campus Syndrome in the Pietrain pig; test: Campus Syndrome in the Pietrain pig (tremor); format: in vivo; conditions: accelerometric recording
Excerpt: (§2) Typical genetic models in mutant animals are the Campus Syndrome in the Pietrain pig according to A. Richter et al. (Exp. Neurology, 1995; 134: 205-213) or the Weaver mutant mouse according to J. R. Simon and B. Ghetti (Mol. Neurobiol., 1994; 9: 183-189). In the Campus Syndrome model, these mutant pigs show a high-frequency tremor when standing and during locomotion, but not while lying at rest. Assessment of tremor is made by accelerometric recording. In the Weaver mutant mouse, degenerative cerebellar atrophy is fould in association with tremor, gait instability, and toppling over the sides after a few steps.

Weaver mutant mouse = Weaver mutant mouse (locomotor activity); format: in vivo; conditions: activity cages
Excerpt: as §2

[10] = test system: oxotremorine-induced tremor; test: Oxotremorine-induced tremor; format: in vivo; conditions: rating scale
Protocol: A typical animal model for drug-induced tremors is the oxotremorine-induced tremor (e.g. H. Hallberg and O. Almgren, Acta Physiol. Scand., 1987; 129: 407-13; J. G. Clement and W. R. Dyck, J. Pharmacol. Meth., 1989; 22: 25-36). Oxotremorine induces tremor which is measured by a rating scale. (R)-(−)-2-[5-(4-fluoro-phenyl)-3-pyridyl-methyl-amino-methyl]-chromane or one of its pharmaceutically acceptable salt inhibited oxotremorine-induced tremors.

[11] = test system: posthypoxic myoclonus, rats; test: Posthypoxic myoclonus in rats; format: in vivo, rat; conditions: after cardiac arrest for 8 minutes
Protocol: A typical animal model for myoclonus is myoclonus induced by an acute hypoxic episode according to D. D. Truong et al., Mov. Disord., 1994; 9: 201-206). In this model of posthypoxic myoclonus, rats undergo a cardiac arrest for 8 minutes and are resuscitated thereafter. Myoclonic jerks occur spontaneously but can be provoked by auditory stimulation, too, worsening over the days following cardiac arrest.

5-HT1A receptor [12] = molecular target: T1, 5-HT1A receptor (Homo sapiens, UniProt P08908); conditions: in contrast to buspirone
dopamine D3 receptor = dopamine D3 receptor (Homo sapiens, UniProt P35462)
5-HT1A receptor [13] = molecular target: T1, 5-HT1A receptor; test: biochemical
[14] = Abnormal Involuntary Movement Scale

T1 sequence (P08908 whole entry): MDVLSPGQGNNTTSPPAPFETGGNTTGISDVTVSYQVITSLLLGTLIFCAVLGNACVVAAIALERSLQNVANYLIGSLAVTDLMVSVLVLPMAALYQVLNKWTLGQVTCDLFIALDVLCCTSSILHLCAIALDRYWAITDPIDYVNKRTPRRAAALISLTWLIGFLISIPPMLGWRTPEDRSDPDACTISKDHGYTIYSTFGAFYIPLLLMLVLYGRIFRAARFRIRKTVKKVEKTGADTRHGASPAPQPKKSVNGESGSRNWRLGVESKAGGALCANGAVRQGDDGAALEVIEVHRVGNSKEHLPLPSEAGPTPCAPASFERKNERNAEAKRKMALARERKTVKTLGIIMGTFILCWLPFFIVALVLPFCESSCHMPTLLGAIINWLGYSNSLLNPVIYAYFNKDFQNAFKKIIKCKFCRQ
Chain of dopamine D3 receptor (P35462 whole entry, species assumed): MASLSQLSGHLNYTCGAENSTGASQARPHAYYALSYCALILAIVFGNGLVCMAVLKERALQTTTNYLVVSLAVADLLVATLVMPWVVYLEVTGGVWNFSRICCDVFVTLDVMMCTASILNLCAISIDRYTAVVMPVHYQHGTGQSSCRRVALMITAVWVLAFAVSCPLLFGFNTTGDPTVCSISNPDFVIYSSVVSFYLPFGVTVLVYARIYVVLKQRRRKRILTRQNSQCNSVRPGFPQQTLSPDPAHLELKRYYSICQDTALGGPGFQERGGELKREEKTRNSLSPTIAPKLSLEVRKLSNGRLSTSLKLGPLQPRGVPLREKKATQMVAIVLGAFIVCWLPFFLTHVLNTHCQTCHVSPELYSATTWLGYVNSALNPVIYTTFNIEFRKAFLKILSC
Chain of D2 (P14416 whole entry): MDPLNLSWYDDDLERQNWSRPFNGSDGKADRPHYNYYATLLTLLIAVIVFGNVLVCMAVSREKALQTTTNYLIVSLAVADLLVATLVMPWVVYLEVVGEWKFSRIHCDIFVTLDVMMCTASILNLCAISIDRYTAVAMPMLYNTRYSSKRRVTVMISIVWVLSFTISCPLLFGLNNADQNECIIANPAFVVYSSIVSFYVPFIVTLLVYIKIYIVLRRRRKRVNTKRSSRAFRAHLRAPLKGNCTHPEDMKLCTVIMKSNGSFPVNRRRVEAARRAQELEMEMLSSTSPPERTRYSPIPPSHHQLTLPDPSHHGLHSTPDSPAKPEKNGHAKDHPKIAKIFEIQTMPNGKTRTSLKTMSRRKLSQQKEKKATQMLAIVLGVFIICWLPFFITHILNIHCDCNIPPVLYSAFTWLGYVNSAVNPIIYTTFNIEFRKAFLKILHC

Fc1ccc(-c2cncc(CNC[C@H]3CCc4ccccc4O3)c2)cc1 [(R)-(−)-2-[5-(4-fluorophenyl)-3-pyridylmethylaminomethyl]-chromane]
induction of catalepsy (rats): does not induce any catalepsy
prevention of catalepsy induced by conventional antidopaminergic drugs [1]: able to prevent catalepsy
reversal of already existing catalepsy induced by conventional antidopaminergic drugs such as haloperidol [1]: reverses already existing catalepsy
D2 antagonism (D2): exhibit a D2 antagonism under increased doses
dystonic dyskinesias [2, 14]: reduced
overall choreiform dyskinesias [2, 14]: reduced
psychotic states ([2]; rating of attention, reactivity and mobility): reduced
parkinsonian symptoms (Laval University Disability Scale) [3]: reduced all the parkinsonian symptoms
total activity [3]: increased
akinesia [4]: dose-dependently reduced
distance traveled and time active ([4]; activity meters): restored distance traveled and time active to about the level of normal animals
turning behavior induced by amphetamine [5]: dose-dependently antagonized
turning behavior induced by apomorphine [5]: dose-dependently antagonized
nocturnal akinesia (hypoactivity) ([6]; after four injections of 3-NP (late Huntington's disease)): reduced
nocturnal hyperactivity ([6]; after two injections of 3-NP (early Huntington's disease)): reduced
severity of dystonic symptoms (mutant dystonic hamster): dose-dependently reduced
muscle tone enhanced by haloperidol [7]: decreased
extrapyramidal motor side effects (dystonia, dyskinesias, akathisia, bradykinesia) [8]: dose-dependently reduced
tremor when standing and during locomotion [9]: reduced disabling tremor
locomotor activity (Weaver mutant mouse): enhanced
oxotremorine-induced tremors [10]: inhibited
number of auditory-evoked myoclonic jerks [11]: dose-dependently reduced
number of spontaneous myoclonic jerks [11]: dose-dependently reduced
potency as agonist at the 5-HT1A receptor relative to buspirone (5-HT1A receptor [12]): 30 fold
affinity to the dopamine D3 receptor (dopamine D3 receptor): high affinity
IC50 (5-HT1A receptor [13]): 1 nM
